# Laboratory results taken from patent US20030103945A1, “Methods and compositions for stimulating axon regeneration and preventing neuronal cell degeneration” (priority 2001, published 2003).
# Where a SMILES comes first, the peptide text is derived from it. The star is where a group is joined. Cbz = O=C(OCc1ccccc1)*; CH2F = FC*
# Columns and labels:
# retinal explants = experiment: Retinotectal explant coculture, cell death (SYTOX green) and retinal axon growth; type: cell-based, mouse; design: protection of cells from death compared with bcl-2 transgenic mouse: dose or concentration left out as unconfirmed; details: wild-type P2 mice
# Description: Whether these two activities of neurons, survival and axonal growth, can be separated in vitro was next examined. The anti-apoptotic function of bcl-2 is well established (Davies, A. A TINS 18, 355-358 (1995); Korsmeyer, S. J. hnmunol. Today 13, 285-288 (1992); Farlie, et al. Proc. Natl. Acad Sci. USA 92, 4397-4401 (1995); Bonfanti, L. et al. J Neurosci. 16, 4186-4194 (1996)). Therefore, it is especially important to examine whether its growth-promoting activity is simply an indirect consequence of supporting cell survival. […] Note that this occurs in the absence of any neurotrophic factors added to the culture medium. The effect of the ICE inhibitor was also tested in the explant coculture system with tissue prepared from wild-type P2 mice. […] While treatment with ZVAD was sufficient to prevent death of RGCs, it is not sufficient to promote axonal growth. […] Evidence from other investigators (when viewed in conjunction with that provided herein) also support the theme that cell survival and axonal growth are two independent activities of neurons (Sagot, Y., Tan, S. A-Hammang, J. P., Aebischer, P. & Kato, A. C. J Neurosci. 16, 2335-2341 (1996); Dusart, 1. & Sotelo, C. J Comp. Neurol. 347, 211-232 (1994)). The regenerative failure of retinal axons and the decrease of bcl-2 levels in RGCs occur (E 18) before programmed cell death starts (P 1 P5) (Young, R. W. J Comp. Neurol. 229, 362-373 (1984)). […] These all support the position that bcl-2 promotes axonal growth through a mechanism independent of its anti apoptotic activity.
# Brains were dissected into ice-cold Gey's balanced salt solution enriched with glucose. […] Retinal explants were abutted against tectal slices. Tissues were placed on the microporous membrane of Millicell wells (Millipore) and maintained in NeuralBasal medium supplemented with B27 (GIBCO Inc., New York) at 370C for five days. To exclude the possibility that tectal tissues from mutant mice may affect axonal growth of RGCs, a series of parallel experiments were performed in which one retinal explant of each mouse was confronted with the tecturn from the same mouse, while the second retinal explant was placed against the tecturn from another mouse. With this arrangement, retinal explants from each animal had the possibility of being cocultured with the tecturn from a wild-type, heterozygous, or homozygous animal. The number of regenerating axons was sampled by applying the lipophilic carbocyanine fluorescent label, DiI, in crystals to fixed retinal explants. The cocultures were stored in fixative for two-four weeks to allow diffusion of the dye, and labeled retinal axons were viewed with a fluorescence microscope (Nikon).
# The brain sections were visualized with a Nikon microscope and site of the lesion was reconstructed in 3 dimensions with MIT Neurotrace computer software. Primary cultures of dissociated retinal cells were prepared from […] wild type or transgenic animals. RGCs were prelabeled by injecting DiI solution (25% in Dimethyl Formamide) into the tectal region bilaterally in PO pups. Cells were plated in 24-cell wells treated with poly-L-lysine (10 μg/ml, 4° C. overnight) and coated with Human Merosin ([…], r.t., 2 hr)(Meyer-Franke, A. and Barres, B. A. Neuron 15, 805-819 (1995)). Cultures were maintained for 2 to 3 days in NeuralBasal medium supplemented with B27. […] Cell death was detected by staining with the fluorescent dye, SYTOX green fluorescent dead cell stain (Molecular Probes). […]
# RGCs = experiment: Dissociated retinal cell culture, RGC survival and neurite outgrowth; type: cell-based, mouse; design: RGC death in dissociated retinal cell culture: dose or concentration left out as unconfirmed
# Description: Whether these two activities of neurons, survival and axonal growth, can be separated in vitro was next examined. The anti-apoptotic function of bcl-2 is well established (Davies, A. A TINS 18, 355-358 (1995); Korsmeyer, S. J. hnmunol. Today 13, 285-288 (1992); Farlie, et al. Proc. Natl. Acad Sci. USA 92, 4397-4401 (1995); Bonfanti, L. et al. J Neurosci. 16, 4186-4194 (1996)). Therefore, it is especially important to examine whether its growth-promoting activity is simply an indirect consequence of supporting cell survival. […] Note that this occurs in the absence of any neurotrophic factors added to the culture medium. The effect of the ICE inhibitor was also tested in the explant coculture system with tissue prepared from wild-type P2 mice. […] While treatment with ZVAD was sufficient to prevent death of RGCs, it is not sufficient to promote axonal growth. […]
# The brain sections were visualized with a Nikon microscope and site of the lesion was reconstructed in 3 dimensions with MIT Neurotrace computer software. […] Cell death was detected by staining with the fluorescent dye, SYTOX green fluorescent dead cell stain (Molecular Probes). […]
# [1] = increasing concentration of ZVAD (50, 100, 200)
structure (smiles),measurement,setting,value
"CC(C)[C@H](NC(=O)OCc1ccccc1)C(=O)N[C@@H](C)C(=O)N[C@@H](CC(=O)O)C(=O)CF [ZVAD, Z-Val-Ala-Asp-CH2F] (Cbz-Val-Ala-Asp-CH2F)","number of axons that invaded tectal slices, wild-type cultures versus bcl-2 transgenic mice",retinal explants; 200 mM ZVAD,10 fold less
same,number of dying cells in retinal explants with increasing concentration,retinal explants; [1],decreased
same,number of growing axons with increasing concentration,retinal explants; [1],did not change significantly
same,protection of cells from death compared with bcl-2 transgenic mouse,retinal explants,protected cells from death almost as well as bcl-2 in the transgenic mouse
same,extent of cell death in retinal explants,retinal explants; explant coculture,reduced the extent of cell death in retinal explants
same,RGC death in dissociated retinal cell culture,"RGCs; 2 days in culture, retinae of P2 pups",effectively reduced RGC death
same,morphology and neurites of labeled RGCs from wild-type animals,"RGCs; ZVAD-treated dissociated culture, no neurotrophic factors added",round and devoid of neurites
